According to ChEMBL document CHEMBL5108052, “Histone Deacetylase and Enhancer of Zeste Homologue 2 Dual Inhibitors Presenting a Synergistic Effect for the Treatment of Hematological Malignancies” (J Med Chem, 2022):
pIC50: −log10 of the molar value.

Tests used:
Histone deacetylase 4 = Histone deacetylase 4 (Homo sapiens, UniProt P56524); experiment: Inhibition of N-terminal GST-tagged/C-terminal His-tagged human HDAC4 (627 to 1084 residues) expressed in baculovirus expression system using trifluoroacetyl lysine as substrate incubated for 2 hrs by Multimode microplate reader analysis
Histone deacetylase 4, sequence (P56524 whole entry, the tested form may be a part): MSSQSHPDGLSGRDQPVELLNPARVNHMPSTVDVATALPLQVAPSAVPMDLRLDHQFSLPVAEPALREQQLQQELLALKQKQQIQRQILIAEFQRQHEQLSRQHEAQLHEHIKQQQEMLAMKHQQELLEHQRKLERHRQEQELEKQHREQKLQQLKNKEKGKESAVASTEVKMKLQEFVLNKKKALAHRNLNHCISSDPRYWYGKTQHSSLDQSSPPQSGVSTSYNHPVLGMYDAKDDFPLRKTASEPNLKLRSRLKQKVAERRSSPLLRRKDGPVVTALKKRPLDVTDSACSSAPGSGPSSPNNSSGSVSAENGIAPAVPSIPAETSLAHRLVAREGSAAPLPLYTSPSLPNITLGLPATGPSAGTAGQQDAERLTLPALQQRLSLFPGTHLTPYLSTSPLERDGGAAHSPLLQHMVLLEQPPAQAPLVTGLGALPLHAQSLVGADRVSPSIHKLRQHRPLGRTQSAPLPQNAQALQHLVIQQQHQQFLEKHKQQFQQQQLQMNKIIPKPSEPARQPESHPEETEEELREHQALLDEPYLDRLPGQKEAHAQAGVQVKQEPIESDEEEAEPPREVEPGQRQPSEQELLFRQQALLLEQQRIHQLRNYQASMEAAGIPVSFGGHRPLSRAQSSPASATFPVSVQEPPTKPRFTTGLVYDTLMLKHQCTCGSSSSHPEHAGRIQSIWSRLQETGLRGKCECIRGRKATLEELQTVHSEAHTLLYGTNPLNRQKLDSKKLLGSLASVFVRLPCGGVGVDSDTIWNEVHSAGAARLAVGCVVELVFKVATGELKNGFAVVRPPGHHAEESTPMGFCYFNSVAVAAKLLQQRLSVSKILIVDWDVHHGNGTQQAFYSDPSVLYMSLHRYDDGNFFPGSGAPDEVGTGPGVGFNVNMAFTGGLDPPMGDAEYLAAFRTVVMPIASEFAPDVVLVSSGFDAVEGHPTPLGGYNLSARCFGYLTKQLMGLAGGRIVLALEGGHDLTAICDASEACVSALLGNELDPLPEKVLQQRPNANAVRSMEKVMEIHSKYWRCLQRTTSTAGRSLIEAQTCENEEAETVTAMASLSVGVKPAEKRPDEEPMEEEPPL

MV4-11 [1] = experiment: Antitumor activity against human MV4-11 cells xenografted in BALB/c nude mouse assessed as tumor growth inhibition at 50 mg/kg, ip administered for 20 days in presence of by vernier caliper analysis; format: functional; conditions: MV4-11, 480 h, time 20 day, read-out: TGI
L02 = experiment: Cytotoxicity against human L02 cells assessed as increase in combination index measured after 72 hrs by CCK-8 assay; format: toxicity, cell-based; conditions: l02, 72 h
MV4-11 [2] = experiment: Induction of mitochondrial membrane potential in human MV4-11 cells assessed as reduction in red fluorescence intensity at 0.2 uM measured after 48 hrs by JC1 staining-based flow cytometry analysis (reference value: 98.8%); format: functional; design: scale not given: the % may be the effect or the level left
Histone deacetylase 11 = target: T1, Histone deacetylase 11 (Homo sapiens, UniProt Q96DB2); experiment: Inhibition of N-terminal Strep2-tagged recombinant His-tagged human HDAC11 (1 to 347 residues) using trifluoroacetyl lysine as substrate incubated for 2 hrs by Multimode microplate reader analysis
T1 sequence (Q96DB2 whole entry): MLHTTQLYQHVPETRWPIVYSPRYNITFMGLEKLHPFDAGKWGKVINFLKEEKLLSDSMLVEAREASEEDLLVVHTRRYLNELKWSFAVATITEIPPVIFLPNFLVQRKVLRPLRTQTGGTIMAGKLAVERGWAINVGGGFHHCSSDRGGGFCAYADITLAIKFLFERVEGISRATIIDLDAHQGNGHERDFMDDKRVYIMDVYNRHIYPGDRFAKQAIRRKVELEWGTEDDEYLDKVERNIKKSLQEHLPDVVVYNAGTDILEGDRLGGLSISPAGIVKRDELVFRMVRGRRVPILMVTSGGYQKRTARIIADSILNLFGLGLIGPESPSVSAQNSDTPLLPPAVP

MV4-11 [3] = experiment: Induction of apoptosis in human MV4-11 cells assessed as late apoptotic cells at 0.4 uM measured after 48 hrs by Annexin V/7-AAD-dual staining based flow cytometric analysis (reference value: 1.1 %); format: functional
MV4-11 [4] = experiment: Induction of mitochondrial membrane potential in human MV4-11 cells assessed as reduction in red fluorescence intensity at 0.4 uM measured after 48 hrs by JC1 staining-based flow cytometry analysis (reference value: 98.8%); format: functional; design: scale not given: the % may be the effect or the level left
Homo sapiens = species on record: Homo sapiens; conditions: time 90.0 sec
MV4-11 [5] = experiment: Induction of apoptosis in human MV4-11 cells assessed as necrotic cells at 0.2 uM measured after 48 hrs by Annexin V/7-AAD-dual staining based flow cytometric analysis (reference value: 0.3 %); format: functional
MV4-11 [6] = experiment: Induction of apoptosis in human MV4-11 cells assessed as early apoptotic cells at 0.1 uM measured after 48 hrs by Annexin V/7-AAD-dual staining based flow cytometric analysis (reference value: 2.2 %); format: functional

Cc1cc(C)c(CNC(=O)c2cc(-c3ccc(N4CCN(c5ncc(C(=O)NO)cn5)CC4)nc3)cc3c2cnn3C(C)C)c(=O)[nH]1
pIC50 (Histone deacetylase 4): 5.25
inhibition in vivo at 50 mg/kg (MV4-11 [1]): 65.7%
Activity (L02): Toxic
Activity (MV4-11 [2]): 84.3%
pIC50 (Histone deacetylase 11): 5.59
Activity (MV4-11 [3]): 17.1%
Activity (MV4-11 [4]): 72%
Ka (Homo sapiens): 2.18 10^5/M/s
Activity (MV4-11 [5]): 2%
Activity (MV4-11 [6]): 5.4%
